Changes are numbered by the printed parent chain.
Columns and labels:
Type in all cases: binding
DmCRY [1] = biological target: T1, DmCRY (Drosophila melanogaster, UniProt O77059, R237E/R298E); test: UV-visible absorption of purified protein ([…] nm), FAD occupancy; conditions: co-purified FAD
T1 construct: gene cry

DmCRY [2] = biological target: T2, DmCRY (Drosophila melanogaster, UniProt O77059, R298E/Q311E); test: as above; conditions: co-purified FAD
T2 construct: gene cry

SbCRY1a = biological target: T3, SbCRY1a (Sylvia borin, UniProt Q6ZZY0); test: UV-visible absorption titration of apo-protein into constant FAD, global fit
T3 construct: gene CRY1; full length 1-620, 36-aa N-terminal 6xHis extension (pRSET-A), E. coli SoluBL21, apo-protein
T3 sequence (Q6ZZY0 1-620): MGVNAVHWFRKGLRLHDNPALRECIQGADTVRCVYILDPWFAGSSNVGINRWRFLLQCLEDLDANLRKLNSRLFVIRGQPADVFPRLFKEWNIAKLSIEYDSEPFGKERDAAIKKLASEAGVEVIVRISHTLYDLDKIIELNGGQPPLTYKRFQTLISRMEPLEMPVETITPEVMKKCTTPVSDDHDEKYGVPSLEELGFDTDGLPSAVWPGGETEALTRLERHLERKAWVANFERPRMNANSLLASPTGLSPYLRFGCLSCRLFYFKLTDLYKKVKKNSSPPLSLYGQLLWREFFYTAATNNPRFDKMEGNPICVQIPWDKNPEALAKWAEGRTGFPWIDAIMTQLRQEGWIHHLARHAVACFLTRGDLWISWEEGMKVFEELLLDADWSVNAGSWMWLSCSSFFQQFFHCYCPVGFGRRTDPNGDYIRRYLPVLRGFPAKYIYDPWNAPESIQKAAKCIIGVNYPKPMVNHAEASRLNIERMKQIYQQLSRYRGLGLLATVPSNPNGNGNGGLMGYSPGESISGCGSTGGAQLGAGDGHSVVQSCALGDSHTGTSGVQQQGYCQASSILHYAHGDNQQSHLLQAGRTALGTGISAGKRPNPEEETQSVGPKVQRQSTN

DmCRY [3] = biological target: T4, DmCRY (Drosophila melanogaster, UniProt O77059, Q311E); test: UV-visible absorption of purified protein ([…] nm), FAD occupancy; conditions: co-purified FAD
T4 construct: gene cry
T4 sequence (O77059 1-539 Q311E): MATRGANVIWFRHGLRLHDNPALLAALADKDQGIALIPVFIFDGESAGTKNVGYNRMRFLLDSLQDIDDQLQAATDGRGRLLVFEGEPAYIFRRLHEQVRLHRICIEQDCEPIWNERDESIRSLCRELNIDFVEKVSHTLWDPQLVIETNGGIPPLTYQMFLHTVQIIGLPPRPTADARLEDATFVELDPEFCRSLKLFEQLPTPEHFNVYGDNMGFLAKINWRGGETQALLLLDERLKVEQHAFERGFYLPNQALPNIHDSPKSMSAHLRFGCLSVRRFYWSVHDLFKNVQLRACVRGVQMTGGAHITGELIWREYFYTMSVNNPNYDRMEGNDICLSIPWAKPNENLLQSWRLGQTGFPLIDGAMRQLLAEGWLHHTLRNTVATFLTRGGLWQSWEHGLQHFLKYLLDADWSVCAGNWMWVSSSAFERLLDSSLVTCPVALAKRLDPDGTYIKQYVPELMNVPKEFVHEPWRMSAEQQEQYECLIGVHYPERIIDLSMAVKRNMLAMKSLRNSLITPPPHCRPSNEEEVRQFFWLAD

HsCRY2 [4] = biological target: T5, HsCRY2 (Homo sapiens, UniProt Q49AN0); test: UV-visible absorption titration of apo-protein into constant FAD, global fit
T5 construct: gene CRY2; full length 1-593, 39-aa N-terminal 6xHis extension (pRSET-A), E. coli SoluBL21, apo-protein
T5 sequence (Q49AN0 1-593): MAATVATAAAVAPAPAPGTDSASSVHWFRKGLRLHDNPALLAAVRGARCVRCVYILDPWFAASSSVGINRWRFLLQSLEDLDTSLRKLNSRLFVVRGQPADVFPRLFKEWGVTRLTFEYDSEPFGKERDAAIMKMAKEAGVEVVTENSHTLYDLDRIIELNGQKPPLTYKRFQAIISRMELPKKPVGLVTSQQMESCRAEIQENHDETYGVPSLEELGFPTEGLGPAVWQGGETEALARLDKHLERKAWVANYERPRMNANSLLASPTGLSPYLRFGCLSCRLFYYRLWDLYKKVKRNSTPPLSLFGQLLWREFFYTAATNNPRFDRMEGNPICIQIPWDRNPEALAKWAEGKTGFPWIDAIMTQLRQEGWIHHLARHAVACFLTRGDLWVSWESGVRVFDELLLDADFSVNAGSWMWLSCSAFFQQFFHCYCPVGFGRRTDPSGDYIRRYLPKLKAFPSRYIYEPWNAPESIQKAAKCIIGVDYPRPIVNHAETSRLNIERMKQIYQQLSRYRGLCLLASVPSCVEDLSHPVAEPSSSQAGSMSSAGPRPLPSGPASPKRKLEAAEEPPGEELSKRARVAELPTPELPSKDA

DmCRY [5] = biological target: T6, DmCRY (Drosophila melanogaster, UniProt O77059, R237E); test: UV-visible absorption of purified protein ([…] nm), FAD occupancy; conditions: co-purified FAD
T6 construct: gene cry
T6 sequence (O77059 1-539 R237E): as the sequence (O77059 1-539 Q311E) above, with R237E, E311Q counted along it

HsCRY2 [6] = biological target: T7, HsCRY2 (Homo sapiens, UniProt Q49AN0, H243R/S415N); test: UV-visible absorption after incubation in excess FAD and spin filtration; conditions: occupancy after incubation in excess FAD and removal of free FAD
T7 construct: gene CRY2; full length 1-593, 39-aa N-terminal 6xHis extension (pRSET-A), E. coli SoluBL21, apo-protein
T7 sequence (Q49AN0 1-593 H243R/S415N): T5 sequence (Q49AN0 1-593) with H243R, S415N

HsCRY1 = biological target: T8, HsCRY1 (Homo sapiens, UniProt Q16526); test: UV-visible absorption titration of apo-protein into constant FAD, global fit
T8 construct: gene CRY1; full length 1-586, 39-aa N-terminal 6xHis extension (pRSET-A), E. coli SoluBL21, apo-protein
T8 sequence (Q16526 1-586): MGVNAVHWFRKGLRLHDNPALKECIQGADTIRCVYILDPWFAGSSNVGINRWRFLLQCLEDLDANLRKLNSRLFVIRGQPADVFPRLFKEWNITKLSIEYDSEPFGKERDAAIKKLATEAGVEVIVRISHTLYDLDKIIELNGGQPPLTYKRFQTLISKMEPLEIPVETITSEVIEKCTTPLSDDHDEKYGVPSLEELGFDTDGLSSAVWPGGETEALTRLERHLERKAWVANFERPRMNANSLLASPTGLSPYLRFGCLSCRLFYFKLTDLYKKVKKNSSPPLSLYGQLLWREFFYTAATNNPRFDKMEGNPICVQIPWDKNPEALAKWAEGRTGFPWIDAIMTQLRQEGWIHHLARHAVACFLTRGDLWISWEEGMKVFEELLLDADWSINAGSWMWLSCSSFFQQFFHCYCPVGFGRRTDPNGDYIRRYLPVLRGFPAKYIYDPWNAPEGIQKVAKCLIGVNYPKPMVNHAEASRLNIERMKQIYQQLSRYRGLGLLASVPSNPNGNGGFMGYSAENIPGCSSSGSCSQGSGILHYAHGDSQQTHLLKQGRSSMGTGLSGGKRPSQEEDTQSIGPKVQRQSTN

DmCRY [7] = biological target: T9, DmCRY (Drosophila melanogaster, UniProt O77059, N419S); test: UV-visible absorption of purified protein ([…] nm), FAD occupancy; conditions: co-purified FAD
T9 construct: gene cry
T9 sequence (O77059 1-539 N419S): as the sequence (O77059 1-539 Q311E) above, with E311Q, N419S counted along it

DmCRY [8] = biological target: T10, DmCRY (Drosophila melanogaster, UniProt O77059, R298E); test: as above; conditions: co-purified FAD
T10 construct: gene cry
T10 sequence (O77059 1-539 R298E): as the sequence (O77059 1-539 Q311E) above, with R298E, E311Q counted along it

DmCRY [9] = biological target: T11, DmCRY (Drosophila melanogaster, UniProt O77059, R237H); test: as above; conditions: co-purified FAD
T11 construct: gene cry
T11 sequence (O77059 1-539 R237H): as the sequence (O77059 1-539 Q311E) above, with R237H, E311Q counted along it

DmCRY [10] = biological target: T12, DmCRY (Drosophila melanogaster, UniProt O77059); test: UV-visible absorption and visible CD of purified protein; conditions: co-purified oxidized FAD; near-stoichiometric
T12 construct: gene cry
T12 sequence (O77059 1-539): as the sequence (O77059 1-539 Q311E) above, with E311Q counted along it

T2 sequence (O77059 1-539 R298E/Q311E): as the sequence (O77059 1-539 Q311E) above, with R298E counted along it
T1 sequence (O77059 1-539 R237E/R298E): as the sequence (O77059 1-539 Q311E) above, with R237E, R298E, E311Q counted along it

`Cc1cc2nc3c(=O)[nH]c(=O)nc-3n(C[C@H](O)[C@H](O)[C@H](O)COP(=O)(O)OP(=O)(O)OC[C@H]3O[C@@H](n4cnc5c(N)ncnc54)[C@H](O)[C@@H]3O)c2cc1C` [FAD] was tested, and the “% reduction of FAD occupancy” value (DmCRY [1]) was ~ 16%, the “% reduction of FAD occupancy” value (DmCRY [2]) was ~ 58% and the Kd (SbCRY1a) was 97 µM. The FAD occupancy (DmCRY [3]) was “single point mutations only had a minimal impact on FAD occupancy”, the Kd (HsCRY2 [4]) was 68 µM and the “% reduction of FAD occupancy” value (DmCRY [5]) was ~ 12%. For the same compound, the “% bound FAD” value (HsCRY2 [6]) was ~ 30%, the Kd (HsCRY1) was 16 µM and the FAD occupancy (DmCRY [7]) was “single point mutations only had a minimal impact on FAD occupancy”. For the same compound, the FAD occupancy (DmCRY [8]) was “single point mutations only had a minimal impact on FAD occupancy”, the FAD occupancy (DmCRY [9]) was “single point mutations only had a minimal impact on FAD occupancy” and the “UV-visible absorption and visible CD of purified protein” value (DmCRY [10]) was “UV-visible absorption spectrum of DmCRY shows near-stoichiometric binding of oxidized FAD”.

— article PMC5357904, “Vertebrate Cryptochromes are Vestigial Flavoproteins” (Scientific Reports, 2017)
